This data set is described as follows: In vitro dissolution test in Model Fasted Duodenal (MFD) solution, before storage. The format is physicochemical. The settings on record: before aging; for AUC90 fresh: AUC from 0 to 90 minutes, MFD solution; for MDC fresh: maximum drug concentration, MFD solution pH 6.5, 37° C. The text has this:
The concentration of dissolved drug is typically measured as a function of time by sampling the drug and plotting concentration vs. time so that the MDC can be ascertained. To avoid drug particulates which would give an erroneous determination, the test solution is either filtered or centrifuged. “Dissolved drug” is typically taken as that material that either passes a 0.45 μm syringe filter or, alternatively, the material that remains in the supernatant following centrifugation. Filtration can be conducted using a 13 mm, 0.45 μm polyvinylidine difluoride syringe filter sold by Scientific Resources under the trademark TITAN®. Centrifugation is typically carried out in a polypropylene microcentrifuge tube by centrifuging at 13,000 G for 60 seconds. Other similar filtration or centrifugation methods can be employed and useful results obtained. For example, using other types of microfilters may yield values somewhat higher or lower (±10-40%) than that obtained with the filter specified above but will still allow identification of preferred dispersions. It is recognized that this definition of “dissolved drug” encompasses not only monomeric solvated drug molecules but also a wide range of species such as polymer/drug assemblies that have submicron dimensions such as drug aggregates, aggregates of mixtures of polymer and drug, micelles, polymeric micelles, colloidal particles or nanocrystals, polymer/drug complexes, and other such drug-containing species that are present in the filtrate or supernatant in the specified dissolution test.
Dissolution performance of the material from Example 1, before exposure to increased temperature and humidity, was measured as follows. In a 37° C. controlled temperature box, 3.0 mg of the material of Example 1 was inserted into a polypropylene microcentrifuge tube (Sorenson Bioscience Inc.). The theoretical MDC in solution (i.e., if all drug dissolved) was 490 μg/ml [(3.0 mg×1000 μg/mg)×(0.33 g drug/g dispersion)×0.90 salt factor×0.98 drug assay/1.8 ml=490 μg/ml]. […] The tube was closed and a timer was started. […] Each sample was centrifuged, sampled and resuspended as described, then diluted with 250 μL HPLC grade methanol (Burdick & Jackson) and the concentration of drug was determined by HPLC. Samples were taken after 4, 10, 20, 40, and 90 minutes, analyzed, and drug concentrations for each time point were calculated. […]
In addition, the AUC90 value was calculated for Example 1. […] AUC between two individual time points within the curve was determined as follows. […] AUC90 is determined by calculating the sum of these areas defined by the drug concentrations observed at t1 and t2 equal to: 0 and 4 minutes, 4 and 10 minutes, 10 and 20 minutes, 20 and 40 minutes, and 40 and 90 minutes.

In turn, `CCC(CC)Nc1cc(C)nc(Oc2c(C)cc(C)cc2C)c1C.Cl` [Comparative Example C9, [3,6-Dimethyl-2-(2,4,6-trimethyl-phenoxy)-pyridin-4-yl]-(1-ethyl-propyl)-amine hydrogen chloride] had an AUC90 fresh of 165000 ng·h/mL and an MDC fresh of 135 µg/mL.

The compound `CCC(CC)Nc1cc(C)nc(Oc2c(C)cc(C)cc2C)c1C` [Comparative Example C10, [3,6-Dimethyl-2-(2,4,6-trimethyl-phenoxy)-pyridin-4-yl]-(1-ethyl-propyl)-amine] registered an AUC90 fresh of 23300 ng·h/mL and an MDC fresh of 22 µg/mL.

(Values after patent US8828442B2, “Pharmaceutical solid dispersions” (Bend Research, Inc., priority 1999, dated 2014).)
